Laboratory results published in ChEMBL document CHEMBL1145710, “Antineoplastic agents. 362. Isolation and X-ray crystal structure of dibromophakellstatin from the Indian ocean sponge Phakellia mauritiana” (1997).
Values after ≈ are worked out from the molar mass of the structure shown.

Tests used:
Type in all cases: functional
HCT-116 = assay: Cytotoxicity against human HCT116 cells by SRB assay
NCI-H522 = assay: Cytotoxicity against human NCI-H522 cells by SRB assay
COLO 205 = assay: Cytotoxicity against human COLO205 cells by SRB assay
[1] = Cytotoxicity against human Hs 578T cells by SRB assay
NCI-H226 = assay: Cytotoxicity against human NCI-H226 cells by SRB assay
OVCAR-8 = assay: Cytotoxicity against human OVCAR8 cells by SRB assay
786-0 = assay: Cytotoxicity against human 786-0 cells by SRB assay
MDA-MB-231 = assay: Cytotoxicity against human MDA-MB-231 cells by SRB assay
HT-29 = assay: Cytotoxicity against human HT-29 cells by SRB assay
KM-20L2 = assay: Cytotoxicity against human KM20L2 cells by SRB assay; conditions: read-out: ED50 (the source's name)
SF-539 = assay: Cytotoxicity against human SF539 cells by SRB assay
U-251 = assay: Cytotoxicity against human U251 cells by SRB assay
K562 = assay: Cytotoxicity against human K562 cells by SRB assay
SNB-75 = assay: Cytotoxicity against human SNB75 cells by SRB assay
OVCAR-3 = assay: Cytotoxicity against human OVCAR-3 cells by SRB assay; conditions: read-out: ED50 (the source's name)
NCI-H460 = assay: Cytotoxicity against human H460 cells by SRB assay; conditions: read-out: ED50 (the source's name)
HOP-92 = assay: Cytotoxicity against human HOP92 cells by SRB assay
OVCAR-5 = assay: Cytotoxicity against human OVCAR5 cells by SRB assay
A498 = assay: Cytotoxicity against human A498 cells by SRB assay; conditions: read-out: ED50 (the source's name)
SK-MEL-5 = assay: Cytotoxicity against human SK-MEL-5 cells by SRB assay; conditions: read-out: ED50 (the source's name)
SF-295 = assay: Cytotoxicity against human SF295 cells by SRB assay; conditions: read-out: ED50 (the source's name)
[2] = Cytotoxicity against human MCF7/ADR cells by SRB assay; conditions: NCI/ADR-RES
A549 = assay: Cytotoxicity against human A549 cells by SRB assay
PC-3 = assay: Cytotoxicity against human PC3 cells by SRB assay

For `O=C1N[C@H]2n3c(cc(Br)c3Br)C(=O)N3CCC[C@]23N1` [DIBROMOPHAKELLSTATIN], which GI50 (HCT-116) is on record?
The GI50 was 575 nM.

And the GI50 (NCI-H522)?
The GI50 was 240 nM.

What about the GI50 (COLO 205) of the same molecule?
The GI50 was 794 nM.

And the GI50 [1]?
The GI50 was 871 nM.

What about the GI50 (NCI-H226) of the same molecule?
The GI50 was 871 nM.

And the GI50 (OVCAR-8)?
The GI50 was 120 nM.

What about the GI50 (786-0) of the same molecule?
The GI50 was 603 nM.

What about the GI50 (MDA-MB-231) of the same molecule?
Its GI50 is 724 nM.

What about the GI50 (HT-29) of the same molecule?
The GI50 was 631 nM.

And the EC50 (KM-20L2)?
The EC50 was 0.11 µg/mL (≈ 0.282 µM).

And the GI50 (SF-539)?
Its GI50 is 617 nM.

What about the GI50 (U-251) of the same molecule?
Its GI50 is 589 nM.

What about the GI50 (K562) of the same molecule?
The GI50 was 692 nM.

And the GI50 (SNB-75)?
Its GI50 is 776 nM.

What about the EC50 (OVCAR-3) of the same molecule?
The EC50 was 0.46 µg/mL (≈ 1.18 µM).

What about the EC50 (NCI-H460) of the same molecule?
The EC50 was 0.62 µg/mL (≈ 1.59 µM).

What about the GI50 (HOP-92) of the same molecule?
The GI50 was 490 nM.

What about the GI50 (OVCAR-5) of the same molecule?
Its GI50 is 676 nM.

And the EC50 (A498)?
The EC50 was 0.21 µg/mL (≈ 0.538 µM).

And the EC50 (SK-MEL-5)?
Its EC50 is 0.11 µg/mL (≈ 0.282 µM).

What about the EC50 (SF-295) of the same molecule?
The EC50 was 1.5 µg/mL (≈ 3.85 µM).

What about the GI50 [2] of the same molecule?
The GI50 was 525 nM.

And the GI50 (A549)?
Its GI50 is 676 nM.

And the GI50 (PC-3)?
Its GI50 is 708 nM.

With `NC1=N/C(=C2/CCNC(=O)c3[nH]ccc32)C(=O)N1` [DEBROMOHYMENIALDISINE] as the molecule, how does the EC50 (KM-20L2) read?
The EC50 was 8.5 µg/mL (≈ 34.7 µM).

And the EC50 (OVCAR-3)?
The EC50 was 1.8 µg/mL (≈ 7.34 µM).

And the EC50 (NCI-H460)?
The EC50 was 42 µg/mL (≈ 171 µM).

And the EC50 (A498)?
Its EC50 is 24.7 µg/mL (≈ 101 µM).

What about the EC50 (SK-MEL-5) of the same molecule?
The EC50 was 5.7 µg/mL (≈ 23.2 µM).

What about the EC50 (SF-295) of the same molecule?
Its EC50 is 38.9 µg/mL (≈ 159 µM).

Which EC50 (KM-20L2) does the source give for `NC1=N[C@]23CCCN2C(=O)c2cc(Br)c(Br)n2[C@@H]3N1` [DIBROMOPHAKELLIN] here?
The EC50 was 20.1 µg/mL (≈ 51.7 µM).

And the EC50 (OVCAR-3)?
Its EC50 is 15.7 µg/mL (≈ 40.4 µM).

What about the EC50 (NCI-H460) of the same molecule?
Its EC50 is 22 µg/mL (≈ 56.5 µM).

And the EC50 (A498)?
The EC50 was 17.8 µg/mL (≈ 45.8 µM).

And the EC50 (SK-MEL-5)?
Its EC50 is 17 µg/mL (≈ 43.7 µM).

What about the EC50 (SF-295) of the same molecule?
The EC50 was 18.8 µg/mL (≈ 48.3 µM).
